Literature values in patent publication US11701355B2, “Levosimendan for treating pulmonary hypertension with heart failure with preserved ejection fraction (PH-HFpEF)” (Tenax Therapeutics, Inc., priority 2019, dated 2023).

Experiments:
[1] = heart failure subjects; cited from earlier work
[2] = system: phosphodiesterase-3 (PDE3); settings: in vitro; cited from earlier work
[3] = system: whole cardiomyocytes and isolated contractile apparatus preparations; settings: cited from earlier work
PDE4 = settings: in vitro; cited from earlier work
patients with PH-HFpEF = settings: in vivo; cited from earlier work
[4] = system: patients with left heart disease; settings: in vivo; cited from earlier work
PH-HFpEF patients [5] = settings: acute; cited from earlier work
patients with HFpEF = settings: long term treatment, 216 patients; cited from earlier work
PH-HFpEF patients [6] = settings: after 12 weeks, 52 patients; cited from earlier work
HFpEF patients [7] = settings: inhaled 3 times a day for 4 weeks; cited from earlier work
HFpEF patients [8] = settings: in vivo; cited from earlier work
HFpEF patients [9] = settings: in vivo; cited from earlier work; remark: listed apart in the source

Question: Which results are given for `CC(=O)Nc1ccc(C2=NNC(=O)C[C@H]2C)cc1` [OR-1896, (R)-N-(4-(4-methyl-6-oxo-1,4,5,6-tetrahydropyridazin-3-yl)phenyl) acetamide]?
Answer: half-life [1]: 70 to 80 h; potency in the inhibition of PDE3 compared with levosimendan [2]: profoundly less potent; inotropic effects compared with levosimendan [3]: equipotent to levosimendan; potency in the inhibition of PDE4 compared with levosimendan (PDE4): profoundly less potent

Question: Which results are given for `COc1ccccc1Oc1c(NS(=O)(=O)c2ccc(C(C)(C)C)cc2)nc(-c2ncccn2)nc1OCCO` [bosentan]?
Answer: clinical outcomes compared with placebo (patients with PH-HFpEF): worse clinical outcomes; six minute walk test or echocardiographic evaluation of pulmonary hypertension (patients with PH-HFpEF): no improvements

Question: For `CCCNS(=O)(=O)Nc1ncnc(OCCOc2ncc(Br)cn2)c1-c1ccc(Br)cc1` [macitentan], which “hemodynamic parameters (pulmonary vascular resistance, mean pulmonary arterial pressure, pulmonary artery wedge pressure)” value [4] is on record?
Answer: no change

Question: For `COC(=O)N(C)c1c(N)nc(-c2nn(Cc3ccccc3F)c3ncccc23)nc1N` [riociguat], which “TPG or pulmonary vascular resistance” value (PH-HFpEF patients [5]) is on record?
Answer: no change

Question: And the “primary outcome, mean pulmonary arterial pressure” value (PH-HFpEF patients [5])?
Answer: not achieved

Question: For `CCCc1nn(C)c2c(=O)[nH]c(-c3cc(S(=O)(=O)N4CCN(C)CC4)ccc3OCC)nc12` [sildenafil], which “six-minute walk time, clinical status, or quality of life” value (patients with HFpEF) is on record?
Answer: failed to improve

Question: And the mPAP (PH-HFpEF patients [6])?
Answer: no change

Question: With `O=NO` [sodium nitrite] as the compound, how does the “primary endpoint of peak oxygen consumption during cardiopulmonary exercise; secondary endpoints” value (HFpEF patients [7]) read?
Answer: unable to demonstrate any improvement

Question: Which primary endpoints (HFpEF patients [8]) does the source give for `COC(=O)Nc1c(N)nc(-c2nn(Cc3ccccc3F)c3ncc(F)cc23)nc1N` [vericiguat] here?
Answer: no significant changes

Question: For sacubitril/valsartan, which “reduction in the primary endpoint” value (HFpEF patients [9]) is on record?
Answer: not statistically significant
